Laboratory results: publication PMC4595804, “A strategy to discover decoy chemokine ligands with an anti-inflammatory activity” (Scientific Reports, 2015)

How the values were obtained:
CCL22 = target: T1, CCL22 (Homo sapiens, UniProt O00626); test: TRIC-r calcium assay, neutraligand protocol: compound preincubated with CCL22, EGFP-CCR4+Gqi5+ HEK cells; assay type: cell-based; conditions: for inhibition at 5 µM: compound 5 µM, read-out: Inhibition of CCL22 calcium responses (%)
T1 construct: codes for the mature CCL17 or CCL22 with an N-terminal thioredoxin-hexahistidin (TRX- (His)6) tag; thioredoxin (TRX) (N, cleaved yes); (His)6 (N, cleaved yes); made in house; host or cells: E. coli BL21 (DE3)
T1 sequence (O00626 25-93): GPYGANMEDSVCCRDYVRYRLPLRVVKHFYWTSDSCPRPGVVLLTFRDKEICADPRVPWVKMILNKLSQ
Method: EGFP-CCR4^+Gqi5^+HEKcells were loaded with fluorescent Ca^2+-indicator Indo-1 AM (5μM, Interchim) for 45 min at 37 °C. […] Cells (100,000 cells/well, 100μl) were seeded in black clear bottom 96-well plates (Greiner), and centrifuged at 250 × g for 5 min.
Two plates (96-well plates, Greiner) were prepared for the screen: one containing test compounds alone in order to determine their direct agonistic activity, and another one containing test compounds mixed with CCL17 or CCL22 at room temperature for 1 h (neutraligand protocol). The chemokines and test compounds were prepared at a 3× concentration, while digitonin was prepared at a 4× concentration. The CCR4 antagonist, C-021 served as control in the experiment. In the antagonist protocol, compounds were added to the cell plate (one compound per well) and incubated with cells for 30 min at room temperature, while the agonist (CCL17 or CCL22) was added to the ligand plate only.
Dye loaded cells were placed in the FlexStation 3 (Molecular Devices). […] For the primary screening, the ligands (50μl of chemokine mixed with DMSO or test compounds) were added to the cells at 40 s, followed by digitonin addition (50μl) at 100 s to the cells. Molecules were screened at a final concentration of 2μg/ml with 5 nM CCL17 or CCL22. […] The calcium response values (height of peak response over baseline) were determined. Hits were selected by comparing the response amplitude at the time of the chemokine addition ± test compound. The Z’ factor[29] was calculated according to the following equation: Z’ = 1-(3SD+ + 3SD−)/|Ave+ − Ave−|, where SD+ and Ave+ are respectively the standard deviation and the mean value of the positive controls (chemokine + DMSO), while SD− and Ave− are respectively the standard deviation and the mean value of the negative controls (HEPES-BSA (0.1%) mixed with DMSO, or cells mixed with C-021). Hit molecules were confirmed by performing concentration-response curves and their half maximal inhibitory concentration (IC50) values were calculated using the Kaleidagraph software.

mouse CCL22 = target: T2, mouse CCL22 (Mus musculus, UniProt O88430); test: Calcium responses induced by mouse CCL22, neutraligand protocol, CCR4+Gqi5+ HEK cells; assay type: cell-based; conditions: 5 nM mouse CCL22 preincubated 1 h with compound; read-out: IC50, inhibition of mouse CCL22-evoked calcium responses
T2 construct: purchased R&D systems
Method: Dye loaded cells were placed in the FlexStation 3 (Molecular Devices). Calcium mobilization was measured at 401 and 475 nm emission fluorescence after excitation at 355 nm. For the primary screening, the ligands (50μl of chemokine mixed with DMSO or test compounds) were added to the cells at 40 s, followed by digitonin addition (50μl) at 100 s to the cells. Molecules were screened at a final concentration of 2μg/ml with 5 nM CCL17 or CCL22. […] Raw fluorescence data (at 401 and 475 nm) were exported and the ratio 401/475 was calculated. The calcium response values (height of peak response over baseline) were determined. Hits were selected by comparing the response amplitude at the time of the chemokine addition ± test compound. The Z’ factor[29] was calculated according to the following equation: Z’ = 1-(3SD+ + 3SD−)/|Ave+ − Ave−|, where SD+ and Ave+ are respectively the standard deviation and the mean value of the positive controls (chemokine + DMSO), while SD− and Ave− are respectively the standard deviation and the mean value of the negative controls (HEPES-BSA (0.1%) mixed with DMSO, or cells mixed with C-021). Hit molecules were confirmed by performing concentration-response curves and their half maximal inhibitory concentration (IC50) values were calculated using the Kaleidagraph software. […]
neutraligand. Human (○) or mouse (●) CCL17 (5nM) was preincubated with increasing […]

T2 sequence (O88430 25-92): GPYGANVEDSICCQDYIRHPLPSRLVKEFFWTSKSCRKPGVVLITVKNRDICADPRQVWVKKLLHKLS

CC(C)=CCn1cnc2c1c(=O)n(C)c(=O)n2C [GPN279, 1,3-dimethyl-7-(3-methylbut-2-enyl)-1H-purine-2,6(3H, 7H)-dione]
calcium response induced by WT CCL22 preincubated with compound (CCL22; 10 μM compound, 5 nM chemokine, remaining response): neither inhibited WT nor CCL22 mutants
inhibition at 5 µM (CCL22; HEK293): 0%

O=C(OCC(O)CO)c1ccccc1O (stereo not drawn) [GPN136, 2,3-dihydroxypropyl 2-hydroxybenzoate]
IC50 (mouse CCL22): 8.1 ± 1.5 µM
IC50 (CCL22; 5 nM CCL22 preincubated 1 h with compound, 21 °C, read-out: IC50 for CCL22 neutralization (calcium assay)): 11.6 ± 2.5 µM
inhibition at 2 µg/mL (CCL22; HEK293, 2 μg/ml compound preincubated 1 h with 5 nM CCL22, read-out: inhibition of CCL22-induced calcium responses (primary screen)): 46%
inhibition at 5 µM (CCL22; HEK293): 35 ± 8%
